# Patent US20240424115A1, “LONG-ACTING INTERLEUKIN-15 RECEPTOR AGONISTS AND RELATED IMMUNOTHERAPEUTIC COMPOSITIONS AND METHODS” (Nektar Therapeutics, priority 2017, published 2024)
# What was measured:
# [1] = test system: CTLL-2 cells; assay: Potency assay based on STAT5 phosphorylation in CTLL-2 cells; format: cell-based, murine; conditions: for EC50 (ng/mL) CTLL-2 pSTAT5: Table 2B
# Experimental: In the phospho-STAT5 assay following receptor binding, downstream cell signaling can then activate Signal Transducer and Activator of Transcription 5 (STAT5) through phosphorylation to promote gene expression to induce cell proliferation. The activation of phosho-STAT5 is measured in CTLL-2 cells, a murine T lymphocyte cell line, using the phospho-STAT5/total STAT5 multiplexed assay (Meso Scale Discovery, MD) in response to sample and reference treatment for ˜10 minutes.
# One day prior to the assay, CTLL-2 cells were split into fresh growth medium [RPMI 1640 supplemented with 10% FBS, 10% T-cell culture supplement (catalog #354115, Corning, Inc., Tewksbury, MA), 2 mM L-glutamate, and 1 mM sodium pyruvate]. On the day of assay, cells were pre-incubated in assay medium (RPMI 1640 supplemented with 1% FBS, 2 mM L-glutamate, and 1 mM sodium pyruvate) for at least four hours, and then plated in assay medium in a 96-well plate at 50,000 cells/well. Dilutions of the test article were prepared in an appropriate buffer immediately prior to assay. Stimulation of CTLL-2 cells was initiated by the transfer of 25X test article solutions to triplicate wells containing CTLL-2 cells. Plates were incubated at 37° C., 5% CO2 for 10 minutes, and the reaction was stopped by cell lysis. Detection of phospho-STAT5 and total STAT5 protein levels in cell lysates was performed using the MSD Phospho (Tyr694)/Total STATa,b Whole Cell Lysate Kit (Meso Scale Discovery, MD).
# [2] = target: IL-15Rα:Fc; assay: SPR (BIAcore), IL-15Rα:Fc captured by immobilised goat anti-human Fc
# Chain of IL-15Rα:Fc (Q13261 31-205): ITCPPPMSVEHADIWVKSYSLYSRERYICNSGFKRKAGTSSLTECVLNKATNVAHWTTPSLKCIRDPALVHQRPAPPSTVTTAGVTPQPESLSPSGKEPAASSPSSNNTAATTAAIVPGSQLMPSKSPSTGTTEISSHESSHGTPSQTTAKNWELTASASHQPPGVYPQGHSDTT
# [3] = test system: human PBMCs; assay: HuPBMC-pStat5 assay (flow cytometry, lymphocyte subpopulations); format: cell-based; conditions: for EC50 (ng/ml) pSTAT5 CD56bright NK: Table 3, CD56bright NK cells
# Experimental: The potency of IL-15 or long acting IL-15 R agonists on various human lymphocyte subpopulations was determined by phospho-STAT5 (Y694) dose response assay. Frozen human PBMCs from multiple donors were supplied by AllCells. 1×10^6 cells/100ul were cultured in complete RPMI media for 2 hours and then incubated with the indicated concentrations (10,000ng/ml-0.001ng/ml serial dilutions) of IL-15 or conjugates for 20minutes at 37c. The cells were then fixed (using BD Cytofix) and permeabilized (using 100% pre-chilled methanol) and stained with antibodies for CD3, CD4, CD8, CD4-Tregs (CD4+CD25+Foxp3+), CD56 and phosphorylated STAT5 (Y694) before analysis by flow cytometry. Concentration-response relationships were used to calculate the EC50 values.
# Assessment of in-vitro activity of exemplary long-acting IL-15 receptor agonists (e.g., Conjugates 1, 3 and 5) was carried out by investigating signaling in NK cell subsets of human PBMCs as shown in FIGS. 10A (CD56bright cells) and 10B (CD56dim cells). STAT5 phosphorylation was evaluated as previously described for assessing IL-15 signaling activity of the long acting IL-15 receptor agonists.
# A second study was conducted to investigate/compare the pStat5 response of human PBMCs obtained from two donors (CD3, CD4, CD8, CD56 (bright and dim) and CD4-Tregs (CD25+Foxp3+)) to IL-15, Conjugate 1 and Conjugate 5. An […] dose response was examined using a 10-fold dilution with a dose range of 0.001-10000 ng/ml and a 20 min stimulation. Each of the test articles was diluted in IL-15 buffer+0.1% BSA.
# Assessment of in vitro activity of Conjugate 1 was carried out by investigating NK and CD8 JAK/STAT signaling after treatment of human PBMCs with IL-15 or Conjugate 1 at a dose range of 0.001-10000 ng/ml. STAT5 phosphorylation was assessed as previously described.
# [4] = PK (MRT) of long-acting IL-15 receptor agonists (Table 2B); format: in vivo; conditions: species not stated
# [5] = target: IL-15Rα (Homo sapiens, UniProt Q13261); assay: Receptor affinity for IL-15Rα by surface plasmon resonance (BIAcore); format: binding; conditions: Table 2B; read-out: IL-15Rα KD
# Chain of IL-15Rα (Q13261 31-205 limits assumed): as the sequence (Q13261 31-205) above
# Experimental: The affinities of IL-15 and exemplary long acting rIL-15 receptor agonists were measured using Surface Plasmon Resonance (“SPR”) using a BIAcore™ SPR system. Briefly, the surface of a Biacore CM5 sensor chip was activated using a 1:1 mixture of NHS: EDC to generate active NHS esters. Goat anti-human Fc antibody was covalently attached to the surface by injecting it for five minutes in 10 mM sodium acetate (pH 4). There were approximately 8000 RU of antibodies bound to the surface. Any remaining NHS ester was then quenched with ethanolamine.
# At the initiation of each injection cycle, IL-15-Rα-Fc was captured on a sensor chip channel by a five-minute injection step in PBSP. Typically, 150-200 RU of receptors were bound on the surface.
# (§1) Long acting rIL-15 receptor agonist test articles were diluted to 10 µM in PBS (containing 0.05% Tween 20 and 0.1 mg/ml BSA). A series of 3-fold dilutions were made and injected onto a sensor chip which was coated with IL-15Rα. The affinities were measured by determining the ka and kd rates separately, and the ratio between kd and ka was used to calculate the Kd values.
# The affinities of exemplary long-acting IL-15 receptor agonists (test articles) for the IL-15 α receptor were measured and compared to IL-15. Affinity was measured by BIAcore using IL-15Rα:Fc captured by immobilized anti-Fc.
# as §1, with “The” for “Long acting rIL-15 receptor agonist”, “μM” for “µM”, “between ka and” for “between”, “kd” for “kd and ka”, “[…]” for “Kd”
# [6] = target: IL-15Rα:Fc; assay: SPR (BIAcore), IL-15Rα:Fc captured by immobilised goat anti-human Fc, test article injected in 3-fold dilutions from 10 µM
# [7] = target: IL-15Rα:Fc; assay: SPR (BIAcore), IL-15Rα:Fc captured by immobilised goat anti-human Fc, KD from kd/ka
substance,measurement,setting,value
"recombinant human IL-15: recombinant human IL-15 obtained from PeproTech, served as the control in the CTLL-2 assay [reference compound]","average EC50, STAT5 phosphorylation in CTLL-2 cells","[1]; 10-minute treatment, control",0.00027 µg/mL
[Mono-PEG2-RU-ButryALD-40K]-IL-15 (Conjugate 3) (from UniProt P40933 49-162) (ligand),Kd,[2],411 pM
mono-mPEG-ButryALD-40k-IL-15 (Conjugate 5) (from UniProt P40933 49-162) (ligand),Kd,[2],144 pM
[Mono-PEG2-RU-ButryALD-40K]-IL-15 [Conjugate 3],EC50 (ng/ml) pSTAT5 CD56bright NK,[3],69.76 ng/ml
same,PK (MRT),[4],30 h
same,EC50 (ng/mL) CTLL-2 pSTAT5,[1],16.80 ng/mL
same,Kd,[5],411 pM
mono-mPEG-ButryALD-40k-IL-15 [Conjugate 5],EC50 (ng/ml)-% pSTAT5 CD3 donor1,"[3]; CD3 cells, donor1, 20 min stimulation",1.3 ng/ml
same,EC50 (ng/ml)-% pSTAT5 CD3 donor2,"[3]; CD3 cells, donor2, 20 min stimulation",1.7 ng/ml
same,EC50 (ng/ml)-% pSTAT5 Treg donor1,"[3]; CD4-Treg cells, donor1",0.44 ng/ml
same,EC50 (ng/ml)-% pSTAT5 Treg donor2,"[3]; CD4-Treg cells, donor2",0.45 ng/ml
same,EC50 (ng/ml)-% pSTAT5 CD4 donor1,"[3]; CD4 cells, donor1",1.3 ng/ml
same,EC50 (ng/ml)-% pSTAT5 CD4 donor2,"[3]; CD4 cells, donor2",1.14 ng/ml
same,EC50 (ng/ml)-% pSTAT5 CD8 donor1,"[3]; CD8 cells, donor1",1.4 ng/ml
same,EC50 (ng/ml)-% pSTAT5 CD8 donor2,"[3]; CD8 cells, donor2",2.5 ng/ml
same,EC50 (ng/ml)-% pSTAT5 CD56bright donor1,"[3]; CD56bright cells, donor1",5.1 ng/ml
same,EC50 (ng/ml)-% pSTAT5 CD56bright donor2,"[3]; CD56bright cells, donor2",4.5 ng/ml
same,EC50 (ng/ml)-% pSTAT5 CD56dim donor1,"[3]; CD56dim cells, donor1",16.48 ng/ml
same,EC50 (ng/ml)-% pSTAT5 CD56dim donor2,"[3]; CD56dim cells, donor2",27.12 ng/ml
same,EC50 (ng/ml) pSTAT5 CD56bright NK,[3],32.26 ng/ml
same,EC50 (ng/ml)-% pSTAT5 CD3,"[3]; Table 7 Summary Table, CD3",1.3 ng/ml
same,EC50 (ng/ml)-% pSTAT5 CD4,"[3]; Table 7 Summary Table, CD4",1.3 ng/ml
same,EC50 (ng/ml)-% pSTAT5 CD8,"[3]; Table 7 Summary Table, CD8",1.4 ng/ml
same,EC50 (ng/ml)-% pSTAT5 CD56bright,"[3]; Table 7 Summary Table, CD56bright",5.1 ng/ml
same,EC50 (ng/ml)-% pSTAT5 CD56dim,"[3]; Table 7 Summary Table, CD56dim",16.48 ng/ml
same,EC50 (ng/ml)-% pSTAT5 Treg,"[3]; Table 7 Summary Table, Treg",0.44 ng/ml
same,"IL-15 more potent than conjugate in inducing CD3, CD4, CD8 and Treg cells",[3]; Table 7 data,5-8 fold
same,IL-15 more potent than conjugate in inducing CD56bright and CD56dim cells,[3]; Table 7 data,40-60 fold
same,EC50 (ng/ml)-MFI CD3 donor1,"[3]; pSTAT5 MFI, CD3 cells, donor1",84.73 ng/mL
same,EC50 (ng/ml)-MFI CD3 donor2,"[3]; pSTAT5 MFI, CD3 cells, donor2",154.2 ng/mL
same,EC50 (ng/ml)-MFI Treg donor1,"[3]; pSTAT5 MFI, CD4-Treg cells, donor1",3.5 ng/mL
same,EC50 (ng/ml)-MFI Treg donor2,"[3]; pSTAT5 MFI, CD4-Treg cells, donor2",5.4 ng/mL
same,EC50 (ng/ml)-MFI CD4 donor1,"[3]; pSTAT5 MFI, CD4 cells, donor1",84.21 ng/mL
same,EC50 (ng/ml)-MFI CD4 donor2,"[3]; pSTAT5 MFI, CD4 cells, donor2",98.18 ng/mL
same,EC50 (ng/ml)-MFI CD8 donor1,"[3]; pSTAT5 MFI, CD8 cells, donor1",53.7 ng/mL
same,EC50 (ng/ml)-MFI CD8 donor2,"[3]; pSTAT5 MFI, CD8 cells, donor2",204.6 ng/mL
same,EC50 (ng/ml)-MFI CD56bright donor1,"[3]; pSTAT5 MFI, CD56bright cells, donor1",24.86 ng/mL
same,EC50 (ng/ml)-MFI CD56bright donor2,"[3]; pSTAT5 MFI, CD56bright cells, donor2",56.9 ng/mL
same,EC50 (ng/ml)-MFI CD56dim donor1,"[3]; pSTAT5 MFI, CD56dim cells, donor1",97.51 ng/mL
same,EC50 (ng/ml)-MFI CD56dim donor2,"[3]; pSTAT5 MFI, CD56dim cells, donor2",283.4 ng/mL
same,PK (MRT),[4],25 h
same,EC50 (ng/mL) CTLL-2 pSTAT5,[1],1.45 ng/mL
same,Kd,[5],144 pM
mono-PEG2-RU-ButryALD-20K]-IL-15 (Conjugate 4) (from UniProt P40933 49-162) (ligand),Kd,[2],215 pM
"Recombinant human IL-15 (rIL-15), SEQ ID NO: 1 (from UniProt P40933 49-162) (ligand)",Kd,[2],258 pM
same,koff,[6],0.000149 s⁻¹
same,kon,[6],578000 M⁻¹ s⁻¹
same,Kd,[7],258 pM
mono-PEG2-RU-ButryALD-20K]-IL-15 [Conjugate 4],EC50 (ng/mL) CTLL-2 pSTAT5,[1],6.21 ng/mL
same,Kd,[5],215 pM
